Measurements taken from US7662361B2, “Methods and compositions for modulating drug activity through telomere damage” (priority 1999, dated 2010).
Marks after values point to notes of the source that are not given here.

Assays:
[1] = system: PC3 cells; assay: Cell detachment from the growth surface; assay type: cell-based, human; conditions: 20 nM paclitaxel, end of 96-hr experiment
Procedure: Upon drug treatment, the supernatant along with two subsequent Versene rinses, which contained the detached cells, were collected. […] These samples were centrifuged at 1500 rpm for 10 min and the resulting cell pellets were resuspended in 2 ml of culture media. The cell number in the detached and attached fractions were counted using a Coulter counter (Coulter Electronic, Inc., Hialeah, Fla.).

[2] = Host toxicity (body weight, death) in xenograft-bearing mice; conditions: single agents
Procedure: (§1) The activity of paclitaxel, with or without AZT, was evaluated in immunodeficient mice (male Balb/c nu/nu mice, 6-8 weeks old) bearing the human pharynx FaDu xenografts. […] The saline control group received injections of 200 μl/day of physiological saline of five consecutive days. The paclitaxel group received injections of 10 mg/kg/day paclitaxel dissolved in Cremophor and ethanol (i.e., Taxol) in a volume of 200 μl for five consecutive days. The AZT group received a seven-day infusion of AZT at a rate of 200 ng/hr by a subcutaneously implanted Alzet minipump. […] Animal weights and tumor sizes were measured on days 1, 3, 6, 8, and 10 after initiation of the paclitaxel treatment.

[3] = mouse, in vivo
Procedure: as §1

[4] = system: human pharynx FaDu xenografts; assay: Antitumor effect in mice bearing FaDu xenografts
Procedure: as §1
The antitumor effect of the drug treatments was measured in three ways. The first was the reduction in tumor size. Tumor sizes were determined by first preparing a mold of the extruding tumor using Jeltrate, a rapidly setting molding material, and then preparing and weighing the countermold. Second, the apoptotic effect was measured. […] The tumor sections were evaluated morphologically for tumor cell density, and density of apoptotic cells. […] Third, the ability of drug treatment to prolong the survival time was measured. For this study, the animals were monitored for 100 days, or until moribundity, defined by a tumor length exceeding 1.0 cm, was reached.

[5] = system: FaDu cells; assay: SRB assay of cell number, AZT and paclitaxel; assay type: cell-based, human; conditions: 24 hr
Procedure: In brief, cells were seeded onto 96-well plates. To avoid changes in drug concentration caused by excessive evaporation of medium in wells located at the edge of the plate only the inner wells in 96-well plates were used. The outer wells contained only tissue culture media to serve as blanks. At the end of drug treatment, the culture medium was removed from the wells by aspiration and the cells were then fixed by incubating with 0.2 ml 10% trichloroacetic acid at 4° C. for 1 hr, followed by five washes with distilled water. The plates were then air-dried after which SRB solution (0.05 ml of 0.4%) was added to stain cells for 10 min at room temperature. […] The amount of SRB was measured by absorbance at 490 nm using an EL 340 microplate biokinetics reader (Bio-Tek Instruments, Inc., Winooski, Vt.). The absorbance is proportional to the number of cells attached to the culture plate. […]
Drug activity evaluation. Agent effect was measured in three ways, i.e., enumeration of the number of cells that remained attached in culture flask, enumeration of the number of cells that detached from the growth surface, and by measuring changes in apoptosis. […] The remaining cell number after agent treatment was measured using the sulforhodamine B (SRB) assay. The drug-induced detachment of cells from the growth surface was determined by counting the attached and detached cells. […]

[6] = system: FaDu cells; assay: SRB paclitaxel cytotoxicity in hTR antisense transfected cells; assay type: cell-based; conditions: Homo sapiens, +antisense + IPTG cells (IPTG 44 days), paclitaxel 96 hours, read-out: IC50 of paclitaxel, clone #1
Procedure: In vitro drug activity evaluation. Drug effect was measured in three ways, i.e., by enumerating the number of cells that remained attached in culture flask, by enumerating the number of cells that detached from the growth surface, and changes in levels of apoptosis. The first measurement represents the overall drug effect, i.e., the combination of cytostatic and cytotoxic effects, whereas the latter two measurements reflect the cytotoxic effect. The remaining cell number after drug treatment was measured using the sulforhodamine B (SRB) assay which stains for cellular protein (Skehan P et al. (1990) J Natl Cancer Inst 82:1107-1112).
In brief, cells were seeded onto 96-well plates. To avoid changes in drug concentration caused by excessive evaporation of medium in wells located at the edge of the plate only the inner wells in 96-well plates were used. The outer wells contained only tissue culture media to serve as blanks. […] The amount of SRB was measured by absorbance at 490 nm using an EL 340 microplate biokinetics reader (Bio-Tek Instruments, Inc., Winooski, Vt.). The absorbance is proportional to the number of cells attached to the culture plate. […]
Effect of hTR antisense on the cytotoxic effect of paclitaxel. […] The cytotoxic effect of paclitaxel was quantified using the SRB method which measures the total cellular proteins. […]

[7] = system: FaDu cells; assay: Externalization of phosphatidylserine (Annexin V); assay type: cell-based, human; conditions: 200 nM paclitaxel
Description: Externalization of phosphatidylserine. Apoptotic cells lose membrane phospholipid asymmetry and expose phosphatidylserine on the outer leaflet of plasma membrane. The externalized phosphatidylserine was labeled with Annexin V attached to a fluorescence probe FITC (green fluorescence), using the ApoAlert Annexin V assay (Clontech). As apoptosis progresses, propidium iodide penetrates the cell membrane and stains the cytoplasm (yellow-red stain). Briefly, cells were suspended in binding buffer, incubated with Annexin V-FITC and propidium iodide for 5-15 min in the dark, and examined by fluorescence microscopy. Cells labeled with FITC and/or propidium iodide were scored.

[8] = system: SKOV3 cells; assay: TALA telomere length after paclitaxel treatment; assay type: cell-based, human; conditions: 200 nM paclitaxel
[9] = system: FaDu, MCF7 and PC3 cells; assay: Cell Death Detection ELISA, release of DNA-histone complex; assay type: cell-based, human; conditions: single agents vs untreated controls
Procedure: Apoptosis was measured as the release of DNA-histone complex from the nucleus to the cytoplasm, using the Cell Death Detection ELISA kit which quantifies the amount of DNA-histone complex released into the cytoplasm. Briefly, drug-treated cells were collected and lysed in the lysis buffer. The cytoplasmic fractions of the lysates were placed in wells of a 96-well microtiter plate pre-coated with mouse antihistone primary antibody and mouse anti-DNA-antibody conjugated to peroxidase. The peroxidase substrate, 2,2′-azido-di-[3-ethylbenzthiazoline sulfonate], was applied and the absorbance at 405 nm was measured.
Treatment Protocol. Treatment with the above agents was initiated after cells were allowed to attach to the growth surface in culture flasks. […]
Drug activity evaluation. Agent effect was measured in three ways, i.e., enumeration of the number of cells that remained attached in culture flask, enumeration of the number of cells that detached from the growth surface, and by measuring changes in apoptosis. […] The remaining cell number after agent treatment was measured using the sulforhodamine B (SRB) assay. The drug-induced detachment of cells from the growth surface was determined by counting the attached and detached cells. Drug-induced apoptosis was measured using the Cell Death Detection ELISA kit which measures the release of DNA-histone complex from the nucleus to the cytoplasm. […]

For `CC(=O)O[C@H]1C(=O)[C@@]2(C)[C@H]([C@H](OC(=O)c3ccccc3)[C@]3(O)C[C@H](OC(=O)[C@H](O)[C@@H](NC(=O)c4ccccc4)c4ccccc4)C(C)=C1C3(C)C)[C@]1(OC(C)=O)CO[C@@H]1C[C@@H]2O` [paclitaxel], the detached cell fraction [1] was 68%, the toxicity-related death [2] was “no toxicity-related death” and the End-of-experiment body weight [3] was 97∀6 ^a % of pretreatment value. The “body weight loss compared to the pretreatment weight” value [3] was less than 3%, the “median time to reach moribundity” value ([4]; Kaplan Meier analysis, monitored 100 days) was 42 days and the tumor-free survivors ([4]; of 12 animals) was “did not show tumor-free survivors”. The Emax ([5]; Homo sapiens, FaDu, paclitaxel alone, up to 10 μM, read-out: maximum effect (reduction of cell number)) was 35%, the cell number ([5]; paclitaxel alone 100 nM, fixed concentration method) was “about 65 % of the control value” and the IC50 [6] was 1.3 nM. The “fraction labeled for externalized phosphatidylserine” value ([7]; attached cells) was 6-8%, the “time at which labeled fraction became significantly higher than untreated controls” value ([7]; detached cells) was 12 h and the “fraction labeled for externalized phosphatidylserine” value ([7]; detached cells, 24 hr) was 60%. The “shortening of telomeric length” value ([8]; 24 hr, compared to untreated controls) was 13%, the “telomere shortening on extending treatment” value ([8]; 36 hr) was “did not produce a greater telomere shortening” and the “release of DNA-histone complex from the nucleus to the cytoplasm” value [9] was “significant enhancement”.
